From PMC9706920, “Aryloxypropanolamine targets amyloid aggregates and reverses Alzheimer-like phenotypes in Alzheimer mouse models” (Alzheimer's Research & Therapy, 2022)

Columns and labels:
[1] = target: T1, Aβ(pE3-42) aggregates (Homo sapiens, UniProt P05067); test: ThT fluorescence Aβ(pE3-42) disaggregation assay; format: biochemical; details: Fig. 4D
T1 construct: Aβ(pE3-42), p[…]; made in house; host or cells: chemical synthesis (Fmoc solid phase peptide synthesis)
Description: ThT fluorescence was used to assess the in vitro inhibition of Aβ(1–42) and disaggregation of Aβ(1–42), Aβ(1–40), Aβ(pE3-42), recombinant tau K18, and tau repeats R1, R2, R3, R4 by YIAD compounds. In house synthetic Aβ(1–42) was dissolved in DMSO (1 mM, 100% DMSO) and diluted to 20-fold in deionized water to make 50 μM Aβ(1–42) stocks (5% DMSO). YIAD compounds were first dissolved in DMSO (100 mM, 100% DMSO) and serially diluted with deionized water to make YIAD stocks with concentrations of 1, 10, 100, and 1000 μM (10% DMSO). For the Aβ(1–42) inhibition assay, monomeric Aβ(1–42) stocks and YIAD stocks were co-incubated at 37°C for 3 days. For Aβ(1–42) disaggregation assay, monomeric Aβ(1–42) stocks were preincubated at 37°C for three days to form Aβ(1–42) aggregates, and subsequently, YIAD stocks were added for an additional 3 days. For Aβ(1-40) disaggregation assays, Aβ(1–40) (50 μM, 5% DMSO) was preincubated at 37°C for 3 days to induce aggregation, and co-incubated with YIAD001 and YIAD002 for an additional 3 days. […] Prior to fluorescence intensity measurement, ThT solution (5 μM) was prepared by dissolving ThT, purchased from Sigma-Aldrich (MO, USA) in 50 mM glycine buffer (pH 8.5). To quantify the effect of inhibition and disaggregation, 25 μL of all samples and 75 μL of ThT solution were loaded into a half-area 96-well black plate in triplicate.

[2] = target: T2, CYP 1A2 (Homo sapiens, UniProt P05177); test: CYP450 inhibition assay, 1A2; format: in vitro ADME; details: YIAD002 10 μM, human liver microsomes; weak or no inhibition; read-out: CYP 1A2 inhibition, IC50 (inhibition criteria)
T2 construct: […]; from tissue; host or cells: human liver microsomes
T2 sequence (P05177 1-516): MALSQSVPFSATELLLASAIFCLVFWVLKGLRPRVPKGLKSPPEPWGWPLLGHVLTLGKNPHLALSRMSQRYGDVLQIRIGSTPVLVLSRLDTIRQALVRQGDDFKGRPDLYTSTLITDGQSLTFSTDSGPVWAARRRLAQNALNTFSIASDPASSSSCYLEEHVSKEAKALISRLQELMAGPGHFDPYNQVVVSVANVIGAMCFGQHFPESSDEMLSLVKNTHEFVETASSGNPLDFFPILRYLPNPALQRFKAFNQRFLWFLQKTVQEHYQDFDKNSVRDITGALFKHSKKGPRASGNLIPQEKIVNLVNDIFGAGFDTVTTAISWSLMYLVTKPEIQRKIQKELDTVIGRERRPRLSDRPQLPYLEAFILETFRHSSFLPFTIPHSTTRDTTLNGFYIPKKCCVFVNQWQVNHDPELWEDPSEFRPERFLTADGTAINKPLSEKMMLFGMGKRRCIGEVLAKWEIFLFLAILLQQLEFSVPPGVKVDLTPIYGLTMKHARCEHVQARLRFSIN
Description: Incubation mixtures for Cytochrome P450s (CYPs) inhibition assay contained human liver microsomes (0.25 mg/ml), 0.1 M phosphate buffer (pH 7.4), 10 μM of YIAD002, and an enzyme substrate cocktail (phenacetin 50 μM, diclofenac 10 μM, S-mephenytoin 100 μM, dextromethorphan 5 μM, and midazolam 2.5 μM). The mixture was pre-incubated at 37°C for 5 min and 1 mM NAPDH was added to initiate reactions. After 15 min of incubation, acetonitrile with terfenadine was added to stop reactions and microsomal solutions were centrifuged at 14,000 rpm at 4°C for 5 min. For LC-MS/MS analysis, supernatants were injected on a Kinetex C18 column (2.1 × 100 mm, 2.6 μm particle size, Phenomenex, USA). The composition of the mobile phase was 0.1% formic acid in water (A) and 0.1% formic acid in acetonitrile (B).

[3] = Microsomal stability, rat; format: in vitro ADME; details: 1 μM, 30 min, 37°C
Description: To evaluate the rate of drug metabolism, we tested YIAD002 stability in liver microsomes of human, rat, and mouse. Microsomal concentration was 0.5 mg/ml in 0.1 M phosphate buffer (pH 7.4). 1 μM of YIAD002 was added to microsome solutions and was prewarmed at 37°C for 5 min. NADPH-regenerating solution was added to microsomes and incubated at 37°C for 30 min. At the end of incubation, acetonitrile with chlorpropamide was added to stop reactions and microsomal solutions were centrifuged at 14,000 rpm at 4°C for 5 min. For LC-MS/MS analysis, supernatants were injected on a Kinetex C18 column (2.1 × 100 mm, 2.6 μm particle size, Phenomenex, USA). The composition of the mobile phase was 0.1% formic acid in water (A) and 0.1% formic acid in acetonitrile (B).

T1 sequence (P05067 674-713): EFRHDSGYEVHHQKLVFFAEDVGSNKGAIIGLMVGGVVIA

CCC(C)(C)c1ccc(OCC(O)CN2CCCC2)c(C(C)(C)CC)c1.Cl (stereo not drawn) [YIAD002, 1-(3-(2,4-Di-tert-pentylphenoxy)-2-hydroxypropyl)pyrrolidin-1-ium chloride]
Dissociative activity against Aβ(pE3-42) aggregates [1]: dissociative activity | IC50 [2]: > 10 µM | Remaining compound in rat microsomes [3]: 11.2%
